Among the data in ChEMBL document CHEMBL5212743, “Selectivity Literature for EUbOPEN Chemogenomics Library wave 3” (2023) are % of control and IC50 values, retold here.

Each structure is given as a SMILES string.

Experiment [1] concerns the target Dual specificity tyrosine-phosphorylation-regulated kinase 1A (Homo sapiens, UniProt Q13627). Briefly: Selectivity interaction (KinomeScan (DiscoverX)) EUB0000321b DYRK1A. Conditions: at 100 nM.
Experiment [2] concerns the target Dual specificity tyrosine-phosphorylation-regulated kinase 1B (Homo sapiens, UniProt Q9Y463). Briefly: Selectivity interaction (KinomeScan (DiscoverX)) EUB0000321b DYRK1B. Conditions: at 100 nM.
The target in experiment [3] is T1, Dual specificity mitogen-activated protein kinase kinase 5 (Homo sapiens, UniProt Q13163).
T1 sequence (Q13163 whole entry): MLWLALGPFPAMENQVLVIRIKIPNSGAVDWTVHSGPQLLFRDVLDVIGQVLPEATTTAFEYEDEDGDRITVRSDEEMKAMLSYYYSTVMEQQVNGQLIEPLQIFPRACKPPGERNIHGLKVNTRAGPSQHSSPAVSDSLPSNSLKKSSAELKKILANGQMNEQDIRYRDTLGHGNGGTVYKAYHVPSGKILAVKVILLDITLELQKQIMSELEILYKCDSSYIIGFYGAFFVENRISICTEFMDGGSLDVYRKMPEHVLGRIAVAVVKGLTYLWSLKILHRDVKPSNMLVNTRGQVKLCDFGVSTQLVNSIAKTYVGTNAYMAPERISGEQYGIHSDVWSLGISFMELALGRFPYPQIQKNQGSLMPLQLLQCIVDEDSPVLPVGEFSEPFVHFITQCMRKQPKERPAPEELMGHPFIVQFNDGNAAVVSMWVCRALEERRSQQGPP
Briefly: Selectivity interaction (NanoBRET assay (HEK293T cells)) EUB0000321b MAP2K5.

Experiment [4] concerns the target Receptor-type tyrosine-protein kinase FLT3 (Homo sapiens, UniProt P36888, D835V). Briefly: (§1) Selectivity interaction (NanoBRET assay (HEK293T cells)) EUB0000321b FLT3. A general note: BRET reads energy transfer from a luciferase to a nearby fluorophore.
In experiment [5] the target is Receptor-type tyrosine-protein kinase FLT3 (Homo sapiens, UniProt P36888). The description is as §1.
Experiment [6] concerns the target Mitogen-activated protein kinase kinase kinase 5 (Homo sapiens, UniProt Q99683). Put plainly: Selectivity interaction (NanoBRET assay (HEK293T cells)) EUB0000321b MAP3K5.
For experiment [7], the target named is Mitogen-activated protein kinase kinase kinase 5 (Homo sapiens) (UniProt Q99683). Put plainly: Selectivity interaction (KinomeScan (DiscoverX)) EUB0000321b MAP3K5. Conditions: at 100 nM.
For experiment [8], the target named is T2, Platelet-derived growth factor receptor beta (Homo sapiens, UniProt P09619). Put plainly: Selectivity interaction (KinomeScan (DiscoverX)) EUB0000321b PDGFRB. Conditions: at 100 nM.
T2 sequence (P09619 whole entry): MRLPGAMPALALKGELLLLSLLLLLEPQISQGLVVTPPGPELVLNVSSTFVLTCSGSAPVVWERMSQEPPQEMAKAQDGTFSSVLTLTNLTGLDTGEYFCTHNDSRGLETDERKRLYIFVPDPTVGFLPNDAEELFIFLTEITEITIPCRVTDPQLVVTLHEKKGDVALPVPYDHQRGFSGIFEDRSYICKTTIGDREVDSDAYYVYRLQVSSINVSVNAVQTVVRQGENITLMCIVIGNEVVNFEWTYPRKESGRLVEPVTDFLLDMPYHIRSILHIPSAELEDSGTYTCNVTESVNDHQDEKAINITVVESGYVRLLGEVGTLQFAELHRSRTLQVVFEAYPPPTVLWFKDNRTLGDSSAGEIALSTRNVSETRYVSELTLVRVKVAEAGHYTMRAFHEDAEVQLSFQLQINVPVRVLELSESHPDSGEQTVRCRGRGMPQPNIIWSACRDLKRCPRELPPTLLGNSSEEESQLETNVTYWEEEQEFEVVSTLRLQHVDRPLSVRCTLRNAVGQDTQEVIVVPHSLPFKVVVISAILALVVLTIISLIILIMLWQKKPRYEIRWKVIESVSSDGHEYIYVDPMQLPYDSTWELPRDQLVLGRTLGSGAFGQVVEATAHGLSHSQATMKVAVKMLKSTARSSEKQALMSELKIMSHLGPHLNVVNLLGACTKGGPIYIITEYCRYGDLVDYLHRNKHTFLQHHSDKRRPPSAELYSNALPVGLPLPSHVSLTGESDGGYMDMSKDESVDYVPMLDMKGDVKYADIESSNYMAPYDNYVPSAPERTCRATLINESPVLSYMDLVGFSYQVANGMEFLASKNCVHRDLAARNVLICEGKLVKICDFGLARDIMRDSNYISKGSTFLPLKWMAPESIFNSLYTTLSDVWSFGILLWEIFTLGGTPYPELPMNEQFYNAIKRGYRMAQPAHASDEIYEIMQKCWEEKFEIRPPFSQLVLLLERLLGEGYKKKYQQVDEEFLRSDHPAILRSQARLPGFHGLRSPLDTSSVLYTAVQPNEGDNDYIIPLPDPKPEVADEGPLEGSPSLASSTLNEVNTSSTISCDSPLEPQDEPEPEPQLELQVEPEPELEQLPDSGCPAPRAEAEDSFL
Experiment [9] deals with T3, Dual specificity mitogen-activated protein kinase kinase 5 (Homo sapiens) (UniProt Q13163).
T3 sequence (whole entry): T1 sequence (Q13163 whole entry)
Briefly: Selectivity interaction (KinomeScan (DiscoverX)) EUB0000321b MAP2K5. Conditions: at 100 nM.

Experiment [10] concerns the target T4, Platelet-derived growth factor receptor alpha (Homo sapiens, UniProt P16234). Briefly: Selectivity interaction (NanoBRET assay (HEK293T cells)) EUB0000321b PDGFRA.
The target in experiment [11] is T5, Mast/stem cell growth factor receptor Kit (Homo sapiens, UniProt P10721). Put plainly: Selectivity interaction (NanoBRET assay (HEK293T cells)) EUB0000321b KIT.
T5 sequence (P10721 whole entry): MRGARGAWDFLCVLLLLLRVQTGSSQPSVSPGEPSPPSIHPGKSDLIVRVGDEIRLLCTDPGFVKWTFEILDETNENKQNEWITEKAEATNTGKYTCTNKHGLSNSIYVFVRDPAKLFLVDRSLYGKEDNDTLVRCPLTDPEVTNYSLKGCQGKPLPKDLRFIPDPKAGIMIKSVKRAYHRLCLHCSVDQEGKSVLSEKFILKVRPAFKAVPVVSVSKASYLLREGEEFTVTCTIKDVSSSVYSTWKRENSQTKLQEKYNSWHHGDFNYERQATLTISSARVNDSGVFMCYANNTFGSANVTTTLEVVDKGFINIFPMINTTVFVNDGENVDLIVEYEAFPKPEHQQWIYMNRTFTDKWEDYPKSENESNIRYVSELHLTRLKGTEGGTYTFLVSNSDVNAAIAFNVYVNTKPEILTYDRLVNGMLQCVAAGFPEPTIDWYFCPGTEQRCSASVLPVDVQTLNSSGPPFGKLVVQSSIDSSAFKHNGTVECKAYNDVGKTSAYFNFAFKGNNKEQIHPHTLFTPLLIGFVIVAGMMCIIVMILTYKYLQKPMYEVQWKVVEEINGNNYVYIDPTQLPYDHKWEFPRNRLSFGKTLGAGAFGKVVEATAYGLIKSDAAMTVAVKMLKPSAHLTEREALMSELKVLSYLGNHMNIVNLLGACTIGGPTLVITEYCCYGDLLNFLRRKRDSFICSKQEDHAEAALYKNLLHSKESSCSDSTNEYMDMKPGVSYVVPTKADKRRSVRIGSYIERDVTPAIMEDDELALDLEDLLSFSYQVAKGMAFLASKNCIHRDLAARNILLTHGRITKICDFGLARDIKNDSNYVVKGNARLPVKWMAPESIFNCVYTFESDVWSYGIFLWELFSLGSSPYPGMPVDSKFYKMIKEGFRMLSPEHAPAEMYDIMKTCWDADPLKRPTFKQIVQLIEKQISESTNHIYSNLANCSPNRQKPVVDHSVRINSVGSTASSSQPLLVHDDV
Experiment [12] has as its target T5, Mast/stem cell growth factor receptor Kit. Briefly: Selectivity interaction (KinomeScan (DiscoverX)) EUB0000321b KIT. The note with it: at 100 nM.
The target in experiment [13] is T2, Platelet-derived growth factor receptor beta. Briefly: Selectivity interaction (NanoBRET assay (HEK293T cells)) EUB0000321b PDGFRB.
Experiment [14] concerns the target T4, Platelet-derived growth factor receptor alpha. Briefly: Selectivity interaction (KinomeScan (DiscoverX)) EUB0000321b PDGFRA. Conditions: at 100 nM.
Experiment [15] concerns the target T6, Homeodomain-interacting protein kinase 2 (Homo sapiens, UniProt Q9H2X6). Briefly: Selectivity interaction (NanoBRET assay (HEK293T cells)) EUB0000724a HIPK2.
Experiment [16] has as its target T6, Homeodomain-interacting protein kinase 2. Put plainly: Selectivity interaction (KinomeScan (DiscoverX)) EUB0000724a HIPK2. The note with it: at 1 µM.
Experiment [17] concerns the target Serine/threonine-protein kinase Nek7 (Homo sapiens, UniProt Q8TDX7). Put plainly: Selectivity interaction (KinomeScan (DiscoverX)) EUB0000724a NEK7. The note with it: at 1 µM.
In experiment [18] the target is T7, Phosphatidylinositol 5-phosphate 4-kinase type-2 beta (Homo sapiens) (UniProt P78356).
T7 sequence (whole entry): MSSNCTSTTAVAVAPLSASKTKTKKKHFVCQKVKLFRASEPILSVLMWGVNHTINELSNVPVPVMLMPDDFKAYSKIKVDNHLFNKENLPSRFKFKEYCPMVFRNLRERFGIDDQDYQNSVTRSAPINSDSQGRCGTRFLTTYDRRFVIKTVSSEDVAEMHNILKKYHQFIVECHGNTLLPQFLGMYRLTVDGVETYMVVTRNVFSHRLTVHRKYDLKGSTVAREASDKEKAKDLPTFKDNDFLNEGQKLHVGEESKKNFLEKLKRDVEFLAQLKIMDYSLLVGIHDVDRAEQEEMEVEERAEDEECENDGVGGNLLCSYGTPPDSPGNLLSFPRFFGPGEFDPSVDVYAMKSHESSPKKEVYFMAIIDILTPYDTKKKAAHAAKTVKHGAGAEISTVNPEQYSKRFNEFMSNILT
Briefly: Selectivity interaction (KinomeScan (DiscoverX)) EUB0000724a PIP4K2B. The note with it: at 1 µM.

Experiment [19] deals with T8, Homeodomain-interacting protein kinase 1 (Homo sapiens, UniProt Q86Z02). Put plainly: Selectivity interaction (KinomeScan (DiscoverX)) EUB0000724a HIPK1. The note with it: at 1 µM.
Experiment [20] concerns the target T9, Mitogen-activated protein kinase 15 (Homo sapiens) (UniProt Q8TD08).
T9 sequence (whole entry): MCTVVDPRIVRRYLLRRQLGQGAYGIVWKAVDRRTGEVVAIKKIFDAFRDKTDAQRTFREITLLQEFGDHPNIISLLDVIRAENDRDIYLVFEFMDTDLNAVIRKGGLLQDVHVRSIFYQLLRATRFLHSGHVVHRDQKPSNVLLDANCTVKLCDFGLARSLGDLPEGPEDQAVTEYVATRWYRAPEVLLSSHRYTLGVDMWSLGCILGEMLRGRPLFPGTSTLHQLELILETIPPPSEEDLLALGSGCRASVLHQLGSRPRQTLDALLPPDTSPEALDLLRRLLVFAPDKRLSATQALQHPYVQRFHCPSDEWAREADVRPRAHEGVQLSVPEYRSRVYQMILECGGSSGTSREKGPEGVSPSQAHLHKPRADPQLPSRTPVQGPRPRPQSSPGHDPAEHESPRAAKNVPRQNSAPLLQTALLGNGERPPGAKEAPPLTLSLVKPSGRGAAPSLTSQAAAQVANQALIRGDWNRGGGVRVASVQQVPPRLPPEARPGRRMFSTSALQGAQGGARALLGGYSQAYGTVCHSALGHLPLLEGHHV
Put plainly: Selectivity interaction (KinomeScan (DiscoverX)) EUB0000724a MAPK15. Conditions: at 1 µM.

In experiment [21] the target is T10, Serine/threonine-protein kinase 16 (Homo sapiens, UniProt O75716). Put plainly: Selectivity interaction (KinomeScan (DiscoverX)) EUB0000724a STK16. The note with it: at 1 µM.
T10 sequence (O75716 whole entry): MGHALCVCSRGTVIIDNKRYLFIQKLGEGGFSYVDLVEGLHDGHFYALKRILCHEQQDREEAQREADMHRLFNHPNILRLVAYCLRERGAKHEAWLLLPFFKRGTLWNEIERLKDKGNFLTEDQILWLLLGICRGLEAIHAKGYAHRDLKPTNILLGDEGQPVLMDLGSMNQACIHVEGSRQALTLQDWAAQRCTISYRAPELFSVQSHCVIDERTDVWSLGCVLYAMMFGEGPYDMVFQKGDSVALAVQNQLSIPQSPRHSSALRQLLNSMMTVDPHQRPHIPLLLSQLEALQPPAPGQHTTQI
The target in experiment [22] is T8, Homeodomain-interacting protein kinase 1. Put plainly: Selectivity interaction (NanoBRET assay (HEK293T cells)) EUB0000724a HIPK1.
Experiment [23] concerns the target T10, Serine/threonine-protein kinase 16. Briefly: Selectivity interaction (NanoBRET assay (HEK293T cells)) EUB0000724a STK16.

T4 sequence (P16234 whole entry): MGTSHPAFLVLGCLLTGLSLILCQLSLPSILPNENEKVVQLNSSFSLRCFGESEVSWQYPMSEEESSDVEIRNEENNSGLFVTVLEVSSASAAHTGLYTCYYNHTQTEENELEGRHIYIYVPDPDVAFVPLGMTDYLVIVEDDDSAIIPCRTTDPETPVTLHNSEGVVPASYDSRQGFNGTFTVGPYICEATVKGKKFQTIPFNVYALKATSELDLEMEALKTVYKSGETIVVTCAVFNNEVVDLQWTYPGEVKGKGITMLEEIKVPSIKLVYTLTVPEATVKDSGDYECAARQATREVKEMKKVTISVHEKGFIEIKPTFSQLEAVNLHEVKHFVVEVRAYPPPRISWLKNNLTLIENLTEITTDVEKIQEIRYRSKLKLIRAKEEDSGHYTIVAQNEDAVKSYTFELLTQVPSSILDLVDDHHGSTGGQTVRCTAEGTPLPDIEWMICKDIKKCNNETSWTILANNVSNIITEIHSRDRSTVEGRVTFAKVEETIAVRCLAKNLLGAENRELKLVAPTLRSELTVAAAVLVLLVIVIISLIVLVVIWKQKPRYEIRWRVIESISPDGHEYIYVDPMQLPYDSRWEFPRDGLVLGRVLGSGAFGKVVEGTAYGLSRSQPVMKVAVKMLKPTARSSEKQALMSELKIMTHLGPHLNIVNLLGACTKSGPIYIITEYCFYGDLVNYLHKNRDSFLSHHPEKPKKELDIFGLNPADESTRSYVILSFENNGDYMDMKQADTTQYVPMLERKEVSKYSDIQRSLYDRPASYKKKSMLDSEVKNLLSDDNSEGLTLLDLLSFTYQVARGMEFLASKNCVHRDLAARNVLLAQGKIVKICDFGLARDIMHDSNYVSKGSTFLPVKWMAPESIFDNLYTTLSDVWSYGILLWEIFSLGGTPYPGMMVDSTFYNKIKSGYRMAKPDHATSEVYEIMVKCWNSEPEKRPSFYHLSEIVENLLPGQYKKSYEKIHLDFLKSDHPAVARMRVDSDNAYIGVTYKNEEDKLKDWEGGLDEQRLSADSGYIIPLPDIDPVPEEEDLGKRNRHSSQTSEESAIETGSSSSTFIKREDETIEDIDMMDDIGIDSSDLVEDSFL
Chain of Dual specificity tyrosine-phosphorylation-regulated kinase 1B (Q9Y463 whole entry, looked up): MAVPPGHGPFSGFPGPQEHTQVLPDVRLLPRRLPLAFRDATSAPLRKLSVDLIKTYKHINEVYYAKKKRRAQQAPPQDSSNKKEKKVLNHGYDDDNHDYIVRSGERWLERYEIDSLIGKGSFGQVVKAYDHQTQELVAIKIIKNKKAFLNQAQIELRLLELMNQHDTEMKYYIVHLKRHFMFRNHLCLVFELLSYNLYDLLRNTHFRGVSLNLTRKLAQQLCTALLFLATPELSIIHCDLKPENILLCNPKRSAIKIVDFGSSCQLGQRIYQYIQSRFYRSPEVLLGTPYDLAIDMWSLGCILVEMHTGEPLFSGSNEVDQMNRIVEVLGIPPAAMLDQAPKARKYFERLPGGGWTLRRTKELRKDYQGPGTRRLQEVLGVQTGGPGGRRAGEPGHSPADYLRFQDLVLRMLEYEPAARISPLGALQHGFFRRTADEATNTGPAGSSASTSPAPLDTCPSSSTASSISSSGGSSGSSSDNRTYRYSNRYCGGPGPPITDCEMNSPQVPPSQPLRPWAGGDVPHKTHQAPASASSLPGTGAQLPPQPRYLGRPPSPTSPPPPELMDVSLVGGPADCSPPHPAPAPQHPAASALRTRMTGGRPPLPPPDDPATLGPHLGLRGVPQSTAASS
Chain of Serine/threonine-protein kinase Nek7 (Q8TDX7 whole entry, looked up): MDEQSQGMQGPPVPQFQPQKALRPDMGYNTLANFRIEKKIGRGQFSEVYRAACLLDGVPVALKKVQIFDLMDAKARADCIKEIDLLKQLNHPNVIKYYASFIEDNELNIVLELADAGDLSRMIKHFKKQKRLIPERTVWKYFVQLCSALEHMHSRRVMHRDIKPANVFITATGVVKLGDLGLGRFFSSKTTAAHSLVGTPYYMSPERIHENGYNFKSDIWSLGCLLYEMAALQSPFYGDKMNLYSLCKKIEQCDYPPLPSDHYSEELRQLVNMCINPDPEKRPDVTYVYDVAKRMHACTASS

The term IC50 denotes the concentration at which inhibition is half-maximal. Higher therefore signals lower potency. In the case of `CN1CCN(C(=O)C(C)(C)c2ccc(C(=O)Nc3cn4cc(-c5ccncc5)ccc4n3)cc2)CC1` [T3-CLK], the % of control stood at 0.3% in experiment [1]; 4.4% in [2]; 19% in experiment [7]; 24% in [8]; 4.9% in experiment [9]; 14% in [12]. Moreover, the % of control in experiment [14] is 29%. For the same compound, the half-inhibitory concentration (IC50) in [3] was above 10 µM; in experiment [4] it was 138 µM; in experiment [5], 2.44 µM; in [6] it was above 10 µM; in experiment [10], 2.52 µM; in experiment [11] it was 2.44 µM. The same compound yielded an IC50 in experiment [13] of 3 µM.
In the case of `COc1cc(Nc2nccc(-c3cnn4nc(OC)ccc34)n2)cc(C(F)(F)F)c1`, the IC50 in [15] is above 10 µM; in experiment [22] it was above 10 µM; in experiment [23], 0.167 µM. In addition, the % of control was determined as 34% in [16]; 40% in [17]; 50% in experiment [18]; 31% in [19]; 21% in [20]; 53% in [21].
